Structures can show the parent of a compound that is named as a salt.
Molecular target: T1, human 5-HT3 serotonin receptors (Homo sapiens, UniProt P46098)
T1 sequence (P46098 24-478): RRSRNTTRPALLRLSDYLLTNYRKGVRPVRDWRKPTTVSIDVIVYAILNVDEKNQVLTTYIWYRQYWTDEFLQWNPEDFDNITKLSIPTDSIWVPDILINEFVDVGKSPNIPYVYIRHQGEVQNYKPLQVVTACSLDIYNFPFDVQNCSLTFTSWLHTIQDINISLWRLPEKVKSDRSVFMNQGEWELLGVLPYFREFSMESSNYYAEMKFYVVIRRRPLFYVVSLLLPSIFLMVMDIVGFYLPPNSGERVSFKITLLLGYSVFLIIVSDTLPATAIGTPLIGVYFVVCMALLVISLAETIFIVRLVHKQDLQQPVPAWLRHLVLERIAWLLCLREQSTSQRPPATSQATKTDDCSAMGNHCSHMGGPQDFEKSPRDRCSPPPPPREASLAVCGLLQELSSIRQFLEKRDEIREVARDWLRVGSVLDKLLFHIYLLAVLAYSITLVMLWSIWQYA
Test: biochemical
Format: binding
Conditions: not given

Structure (SMILES) | Ki [µM]
c1ccc(NC2=NOC3(C2)CN2CCC3CC2)cc1 (single isomer, unassigned) [Compound 1-P1, N-phenyl-4H-1′-azaspiro[isoxazole-5,3′-bicyclo[2.2.2]octan]-3-amine] | 0.0084
Clc1ccc(NC2=NOC3(C2)CN2CCC3CC2)cc1 (single isomer, unassigned) [Compound 20-P1, N-(4-chlorophenyl)-4H-1′-azaspiro[isoxazole-5,3′-bicyclo[2.2.2]octan]-3-amine] | 0.069
Clc1ccc(NC2=NOC3(C2)CN2CCC3CC2)cc1Cl (single isomer, unassigned) [Compound 21-P1, N-(3,4-dichlorophenyl)-4H-1′-azaspiro[isoxazole-5,3′-bicyclo[2.2.2]octan]-3-amine] | 0.0415
Clc1ccc(NC2=NO[C@@]3(C2)CN2CCC3CC2)cc1 [(R)-20, (R)—N-(4-chlorophenyl)-4H-1′-azaspiro[isoxazole-5,3′-bicyclo[2.2.2]octan]-3-amine hydrochloride] | 0.11
Clc1cccc(NC2=NO[C@@]3(C2)CN2CCC3CC2)c1 [(R)-34, (R)—N-(3-chlorophenyl)-4H-1′-azaspiro[isoxazole-5,3′-bicyclo[2.2.2]octan]-3-amine hydrochloride] | 0.012

Same assay, conditions: CHO cell membranes expressing human 5-HT3 receptors, [3H]BRL 43694, 120 min at room temperature; read-out: h-5HT3 Ki

Structure (SMILES) | Ki [µM]
c1ccc2c(NC3=NOC4(C3)CN3CCC4CC3)n[nH]c2c1 (racemic) [Compound 5-P1, N-(1H-indazol-3-yl)-4′H-4-azaspiro[bicyclo[2.2.2]octane-2,5′-isoxazol]-3′-amine] | 0.75
c1ccc2sc(NC3=NOC4(C3)CN3CCC4CC3)cc2c1 (racemic) [rac-12, (+/−)-N-(benzo[b]thiophen-2-yl)-4H-1′-azaspiro[isoxazole-5,3′-bicyclo[2.2.2]octan]-3-amine] | 1.8
c1ccc2cc(NC3=NOC4(C3)CN3CCC4CC3)ncc2c1 (single isomer, unassigned) [Compound 2-P2, N-(isoquinolin-3-yl)-4H-1′-azaspiro[isoxazole-5,3′-bicyclo[2.2.2]octan]-3-amine] | 0.81
c1ccc2sc(NC3=NOC4(C3)CN3CCC4CC3)nc2c1 (single isomer, unassigned) [Compound 3-P2, N-(benzo[d]thiazol-2-yl)-4H-1′-azaspiro[isoxazole-5,3′-bicyclo[2.2.2]octan]-3-amine] | 0.35
COc1ccc2nc(NC3=NOC4(C3)CN3CCC4CC3)sc2c1 (single isomer, unassigned) [Compound 4-P2, N-(6-methoxybenzo[d]thiazol-2-yl)-4H-1′-azaspiro[isoxazole-5,3′-bicyclo[2.2.2]octan]-3-amine] | > 10
Clc1ccc2sc(NC3=NOC4(C3)CN3CCC4CC3)nc2c1 (single isomer, unassigned) [Compound 9-P2, N-(5-chlorobenzo[d]thiazol-2-yl)-4H-1′-azaspiro[isoxazole-5,3′-bicyclo[2.2.2]octan]-3-amine] | > 10
Clc1ccc2nc(NC3=NOC4(C3)CN3CCC4CC3)sc2c1 (single isomer, unassigned) [Compound 10-P2, N-(6-chlorobenzo[d]thiazol-2-yl)-4H-1′-azaspiro[isoxazole-5,3′-bicyclo[2.2.2]octan]-3-amine] | > 10
c1ccc2oc(NC3=NOC4(C3)CN3CCC4CC3)nc2c1 (single isomer, unassigned) [Compound 13-P1, N-(benzo[d]oxazol-2-yl)-4H-1′-azaspiro[isoxazole-5,3′-bicyclo[2.2.2]octan]-3-amine] | 2.4
c1cc2nc(NC3=NOC4(C3)CN3CCC4CC3)sc2cc1C1CC1 (single isomer, unassigned) [Compound 15-P1, N-(6-cyclopropylbenzo[d]thiazol-2-yl)-4H-1′-azaspiro[isoxazole-5,3′-bicyclo[2.2.2]octan]-3-amine] | > 10
Clc1ccc2cc(NC3=NOC4(C3)CN3CCC4CC3)ncc2c1 (single isomer, unassigned) [Compound 19-P2, N-(7-chloroisoquinolin-3-yl)-4H-1′-azaspiro[isoxazole-5,3′-bicyclo[2.2.2]octan]-3-amine] | > 10
Clc1cccc2nc(NC3=NO[C@@]4(C3)CN3CCC4CC3)sc12 [(R)-11, (R)—N-(7-chlorobenzo[d]thiazol-2-yl)-4H-1′-azaspiro[isoxazole-5,3′-bicyclo[2.2.2]octan]-3-amine] | 0.305
Clc1ccc2cnc(NC3=NO[C@@]4(C3)CN3CCC4CC3)cc2c1 [(R)-18, (R)—N-(6-chloroisoquinolin-3-yl)-4H-1′-azaspiroksoxazole-5,3^1-bicyclo[2.2.2]octan1-3-amine hydrochloride] | > 10
Clc1ccc2cc(NC3=NO[C@@]4(C3)CN3CCC4CC3)ncc2c1 [(R)-19, (R)—N-(7-chloroisoquinolin-3-yl)-4H-1′-azaspiro[isoxazole-5,3′-bicyclo[2.2.2]octan]-3-amine hydrochloride] | > 10
c1ccc2nc(NC3=NO[C@@]4(C3)CN3CCC4CC3)ncc2c1 [(R)-22, (R)—N-(quinazolin-2-yl)-4H-1′-azaspiro[isoxazole-5,3′-bicyclo[2.2.2]octan]-3-amine hydrochloride] | 5.2
Clc1cccc2cc(NC3=NO[C@@]4(C3)CN3CCC4CC3)ncc12 [(R)-23, (R)—N-(8-chloroisoquinolin-3-yl)-4H-1′-azaspiroksoxazole-5,3^1-bicyclo[2.2.2]octan1-3-amine hydrochloride] | 1.2
Clc1cccc2cnc(NC3=NO[C@@]4(C3)CN3CCC4CC3)cc12 [(R)-24, (R)—N -(5-chloroisoquinolin-3-yl)-4H-1′-azaspiroksoxazole-5,3′-bicyclo[2.2.2]octan1-3-amine hydrochloride] | 0.26
Cc1ccc2sc(NC3=NO[C@@]4(C3)CN3CCC4CC3)nc2c1 [(R)-25, (R)—N -(5-methylbenzo[d]thiazol-2-yl)-4H-1′-azaspiro[isoxazole-5,3′-bicyclo[2.2.2]octan]-3-amine hydrochloride] | 4.2
c1cc2sc(NC3=NO[C@@]4(C3)CN3CCC4CC3)nc2cc1C1CC1 [(R)-26, (R)—N -(5-cyclopropylbenzo[d]thiazol-2-yl)-4H-1′-azaspiro[isoxazole-5,3′-bicyclo[2.2.2]octan]-3-amine hydrochloride] | 3.1
Fc1ccc2sc(NC3=NO[C@@]4(C3)CN3CCC4CC3)nc2c1 [(R)-27, (R)—N-(5-fluorobenzo[d]thiazol-2-yl)-4H-1′-azaspiro[isoxazole-5,3′-bicyclo[2.2.2]octan]-3-amine hydrochloride] | 5.7
Clc1cc2nc(NC3=NO[C@@]4(C3)CN3CCC4CC3)sc2cc1Cl [(R)-30, (R)—N-(5 ,6 - dichlor obenzo[d]thiazol-2-yl)-4H-1′-azaspiro[isoxazole-5,3′-bicyclo[2.2.2]octan]-3-amine hydrochloride] | > 10
Cc1cc2ccc(NC3=NO[C@@]4(C3)CN3CCC4CC3)cc2o1 [(R)-40, (R)—N-(2-methylbenzofuran-6-yl)-4H-1′-azaspiro[isoxazole-5,3′-bicyclo[2.2.2]octan]-3-amine hydrochloride] | > 10
Cc1cc2ccc(NC3=NO[C@@]4(C3)CN3CCC4CC3)cc2s1 [(R)-42, (R)—N-(2-methylbenzo[b]thiophen-6-yl)-4H-1′-azaspiro[isoxazole-5,3′-bicyclo[2.2.2]octan]-3-amine hydrochloride] | > 10
Cc1cc2cc(NC3=NO[C@@]4(C3)CN3CCC4CC3)ccc2s1 [(R)-43, (R)—N-(2-methylbenzo[b]thiophen-5-yl)-4H-1′-azaspiro[isoxazole-5,3′-bicyclo[2.2.2.]octan]-3-amine hydrochloride] | 5.9
Fc1ccc2cc(NC3=NO[C@@]4(C3)CN3CCC4CC3)ncc2c1 [(R)-44, (R)—N-(7-fluoroisoquinolin-3-yl)-4H-F-azaspiro[isoxazole-5,3^1-bicyclo[2.2.2]octan]-3-amine hydrochloride] | > 10
Fc1ccc2cnc(NC3=NO[C@@]4(C3)CN3CCC4CC3)cc2c1 [(R)-45, (R)—N-(6-fluoroisoquinolin-3-yl)-4H-1′-azaspiro[isoxazole-5,3′-bicyclo[2.2.2]octan]-3-amine hydrochloride] | > 10
COc1ccc2cc(NC3=NO[C@@]4(C3)CN3CCC4CC3)ncc2c1 [(R)-46, (R)—N-(7-methoxyisoquinolin-3-yl)-4H-1′-azaspiro[isoxazole-5,3′-bicyclo[2.2.2]octan]-3-amine hydrochloride] | > 10
COc1ccc2cnc(NC3=NO[C@@]4(C3)CN3CCC4CC3)cc2c1 [(R)-47, (R)—N-(6-methoxyisoquinolin-3-yl)-4H-1′-azaspiro[isoxazole-5,3′-bicyclo[2.2.2]octan]-3-amine hydrochloride] | > 10
Clc1ccc2nc(NC3=NO[C@@]4(C3)CN3CCC4CC3)ncc2c1 [(R)-48, (R)—N-(6-chloroquinazolin-2-yl)-4H-1′-azaspiro[isoxazole-5,3′-bicyclo[2.2.2]octan]-3-amine hydrochloride] | > 10
Clc1ccc2cnc(NC3=NO[C@@]4(C3)CN3CCC4CC3)nc2c1 [(R)-49, (R)—N-(7-chloroquinazolin-2-yl)-4H-1′-azaspiro[isoxazole-5,3′-bicyclo[2.2.2]octan]-3-amine] | > 10
Cc1nc2ccc(NC3=NO[C@@]4(C3)CN3CCC4CC3)cc2s1 [(R)-50, (R)—N-(2-methylbenzo[d]thiazol-6-yl)-4H-1′-azaspiro[isoxazole-5,3′-bicyclo[2.2.2]octan]-3-amine hydrochloride] | 6.2
